T1: AtM3H (Arabidopsis thaliana melatonin 3-hydroxylase) (Arabidopsis thaliana, UniProt Q39224)
T1 construct: gene SRG1; full length, 358 residues; N-terminal hexahistidine tag (pET300), removal not mentioned; E. coli BL21(DE3), Ni-NTA purified
T1 sequence (Q39224 1-358): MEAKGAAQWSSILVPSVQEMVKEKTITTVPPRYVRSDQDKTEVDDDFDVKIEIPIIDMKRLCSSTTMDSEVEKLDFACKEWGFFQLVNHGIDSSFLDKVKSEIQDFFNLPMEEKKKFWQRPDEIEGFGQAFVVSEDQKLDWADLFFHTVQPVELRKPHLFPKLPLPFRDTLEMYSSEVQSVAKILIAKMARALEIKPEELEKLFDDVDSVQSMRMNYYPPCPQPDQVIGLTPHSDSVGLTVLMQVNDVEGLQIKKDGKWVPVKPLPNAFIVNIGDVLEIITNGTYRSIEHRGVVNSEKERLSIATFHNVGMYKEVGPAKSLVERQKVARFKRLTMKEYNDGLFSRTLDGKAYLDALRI

B1: AtM3H (Arabidopsis thaliana melatonin 3-hydroxylase) (Arabidopsis thaliana) (protein)
chain: MEAKGAAQWSSILVPSVQEMVKEKTITTVPPRYVRSDQDKTEVDDDFDVKIEIPIIDMKRLCSSTTMDSEVEKLDFACKEWGFFQLVNHGIDSSFLDKVKSEIQDFFNLPMEEKKKFWQRPDEIEGFGQAFVVSEDQKLDWADLFFHTVQPVELRKPHLFPKLPLPFRDTLEMYSSEVQSVAKILIAKMARALEIKPEELEKLFDDVDSVQSMRMNYYPPCPQPDQVIGLTPHSDSVGLTVLMQVNDVEGLQIKKDGKWVPVKPLPNAFIVNIGDVLEIITNGTYRSIEHRGVVNSEKERLSIATFHNVGMYKEVGPAKSLVERQKVARFKRLTMKEYNDGLFSRTLDGKAYLDALRI

Experiments:
[1] = biological target: T1, AtM3H (Arabidopsis thaliana melatonin 3-hydroxylase); test: HPLC with fluorescence detection of 3-OHM; inhibition of M3H activity; assay type: biochemical
purified protein = substrate: COc1ccc2[nH]cc(CCNC(C)=O)c2c1; test: purified protein; settings: co-substrate α-ketoglutarate (160 µM in standard assay), FeSO4 100 µM, ascorbate 1 mM, catalase, optimum conditions (pH 7.3, 30 °C; Methods list Tris/HCl pH 8.0)

| Molecule | inhibition at 500 µM [1] [%] | Km (purified protein) [µM] |
| --- | --- | --- |
| CCC(=O)C1C(=O)CC(C(=O)O)CC1=O (centres unmarked) [Prohexadione-Ca] | 50 |  |
| B1 |  | 100 |

Source: article PMC9219689, “The Antioxidant Cyclic 3-Hydroxymelatonin Promotes the Growth and Flowering of Arabidopsis thaliana” (Antioxidants, 2022)
